The values below come from US8486719B2, “Multiplex assay methods and compositions” (PerkinElmer BioSignal, Inc., priority 2009, dated 2013).

Assay [1] addresses T1, human bombesin (hBombesin) 3 (Homo sapiens, UniProt P32247).
T1 construct: expressed in transfected cells; host or cells: Balb3T3
T1 sequence (P32247 1-399): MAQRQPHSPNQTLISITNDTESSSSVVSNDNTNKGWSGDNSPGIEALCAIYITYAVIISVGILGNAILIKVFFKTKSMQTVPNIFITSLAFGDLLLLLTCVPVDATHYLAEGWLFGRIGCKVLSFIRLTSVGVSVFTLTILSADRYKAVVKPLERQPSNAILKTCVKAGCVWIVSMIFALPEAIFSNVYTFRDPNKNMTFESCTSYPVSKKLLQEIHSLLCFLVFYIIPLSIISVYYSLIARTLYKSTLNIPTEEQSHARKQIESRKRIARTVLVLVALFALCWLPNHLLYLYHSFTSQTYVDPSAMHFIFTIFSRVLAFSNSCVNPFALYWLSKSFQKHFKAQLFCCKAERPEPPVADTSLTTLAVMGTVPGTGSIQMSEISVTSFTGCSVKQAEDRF
Description: Surface expression of FLAG-tagged bombesin receptor on phthalocyanine-loaded cells, anti-FLAG acceptor beads. Type of assay: cell-based. Conditions: 10 nM or 300 nM agonist, 1 hour at 37° C., Balb3T3 hBombesin 3 FLAG cells.
Description: Bombesin receptor is a well-characterized cell surface receptor which is known to internalize and decrease in cell surface expression following agonist (bombesin) binding. Balb3T3 cells expressing human bombesin (hBombesin) 3 with a FLAG tag and Balb3T3 cells expressing human bombesin 3 without a FLAG tag were used to monitor the expression and binding activity of the bombesin receptor, GPCR in these cells.
About 10 nM or 300 nM of the Bombesin peptide agonist, (6-14)[D-tyr6, b-Ala11, Phe13, Nle14] was incubated with Balb3T3 hBombesin 3 FLAG cells and Balb3T3 hBombesin WT cells for 1 hour at 37° C. after which cells were harvested, labeled with 10 μM to 30 μM Al^3+-phthalocyanine. The phthalocyanine-loaded cells are washed several times in MES or HEPES buffer following the incubation to remove excess phthalocyanine. About 20 to 40 of the anti-FLAG antibody-conjugated acceptor beads including a thioxene and europium chelate emission system are added to the assay mix including MES or HEPES buffer and the phthalocyanine-loaded cells and incubated for 1 hour at room temperature. […] The FLAG-tagged hBombesin was detected with anti-FLAG Acceptor beads in the assay.

The target of a further assay is MEK1 (Homo sapiens, UniProt Q02750). Description: One well multiplexed assay, 572 nm signal: ERK2 phosphorylation by MEK1 with increasing ATP. Type of assay: biochemical. The following applies: signal detected at 572 nm, FIG. 4; read-out: EC50 for ATP-induced ERK2 phosphorylation. An excerpt:
(§1) The kinase MEK1 is expressed with a histidine tag (6×His) at either the C- or N-terminus.
(§2) An antibody which recognizes MEK1 phosphorylated ERK2 (mouse anti-pTpY ERK1/2) is associated with acceptor beads containing thioxene, 9,10-bis(phenylethynyl)anthracene and rubrene via anti-mouse IgG antibody binding. The antibody used, p-Tyr-100, is a generic highly promiscuous anti-phosphotyrosine antibody which recognizes both mono (pY) and dual-(pTpY) phosphorylated forms of ERK2.
(§3) Increasing concentrations of ATP were used to promote the phosphorylation of ERK2 by MEK1.

The next assay deals with MEK1/ERK2 (Homo sapiens, UniProt Q02750). Description: One well multiplexed assay, 615 nm signal: interaction between MEK1 and ERK2 with increasing ATP. Type of assay: binding. The following applies: signal detected at 615 nm, FIG. 4; read-out: EC50 for ATP-induced MEK1/ERK2 dissociation.
Chain of MEK1/ERK2 (Q02750 whole entry, species assumed): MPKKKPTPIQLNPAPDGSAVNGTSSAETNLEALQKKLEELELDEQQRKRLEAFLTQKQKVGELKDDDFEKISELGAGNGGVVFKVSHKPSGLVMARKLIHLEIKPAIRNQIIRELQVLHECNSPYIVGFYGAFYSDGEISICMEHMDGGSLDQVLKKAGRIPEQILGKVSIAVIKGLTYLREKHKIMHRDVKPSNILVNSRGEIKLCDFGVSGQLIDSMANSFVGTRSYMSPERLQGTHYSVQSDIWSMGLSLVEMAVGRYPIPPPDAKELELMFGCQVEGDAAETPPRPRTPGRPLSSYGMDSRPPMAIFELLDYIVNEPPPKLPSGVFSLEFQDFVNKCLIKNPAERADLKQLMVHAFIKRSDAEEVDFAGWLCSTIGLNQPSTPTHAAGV
Text: as §1, §2, §3

Chain of MEK1 (Q02750 whole entry, species assumed): as above

In the case of (6-14)[D-tyr6, b-Ala11, Phe13, Nle14], in assay [1], the “surface expression of the bombesin receptor following agonist stimulation” value is “Changes in surface expression of the bombesin receptor following agonist stimulation are detected”. With `Nc1ncnc2c1ncn2[C@@H]1O[C@H](COP(=O)(O)OP(=O)(O)OP(=O)(O)O)[C@@H](O)[C@H]1O` [ATP], the EC50 on MEK1 and on MEK1/ERK2 was ~1000 nM throughout.
